“Also recorded” adds a separate entry of the source. Where two headings read alike, the source gives them in different places.
Experiments:
Assay type in all cases: binding
human SSTR1 = target: T1, human SSTR1 (Homo sapiens, UniProt P30872); test: Displacement of 125I-[Leu8,D-Trp22,Tyr25]-somatostatin-28 from cloned SSTR1 (receptor autoradiography on membrane pellets); settings: inhibition of 125I-[Leu8,D-Trp22,Tyr24]SRIF-28 binding, cloned receptor; read-out: IC50 (nM) mSSTR1
T1 construct: expressed in transfected cells; host or cells: CHO-K1 cells and CCL39 cells
T1 sequence (P30872 whole entry): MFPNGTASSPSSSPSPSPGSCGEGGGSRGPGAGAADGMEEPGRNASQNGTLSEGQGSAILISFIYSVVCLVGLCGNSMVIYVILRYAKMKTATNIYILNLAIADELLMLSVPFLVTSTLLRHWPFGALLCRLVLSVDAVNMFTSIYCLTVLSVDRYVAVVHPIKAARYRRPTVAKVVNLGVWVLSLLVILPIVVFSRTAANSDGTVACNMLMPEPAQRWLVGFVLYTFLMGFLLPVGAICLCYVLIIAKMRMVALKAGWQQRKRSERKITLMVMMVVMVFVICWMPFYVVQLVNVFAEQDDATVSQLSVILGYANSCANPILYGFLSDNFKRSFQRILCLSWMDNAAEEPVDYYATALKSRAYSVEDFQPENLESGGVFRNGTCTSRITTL
Method: (§1) Generally, recombinant cells expressing the receptor are washed and homogenized to prepare a crude protein homogenate in a suitable buffer, as known in the art. In a typical assay, an amount of protein from the cell homogenate is placed into a small volume of an appropriate assay buffer at an appropriate pH. Candidate substances, such as potential SRIF agonists and antagonists, are added to the admixture in convenient concentrations, and the interaction between the candidate substance and the receptor polypeptide is monitored.
(§2) Receptor binding assays are performed on cloned SRIF receptors as generally set forth in Raynor et al. supra. Using such assays, one can generate KD values which are indicative of the concentration of a ligand necessary to occupy one-half (50%) of the binding sites on a selected amount of a receptor or the like, or alternatively, competitive assays can generate IC50 values which are indicative of the concentration of a competitive ligand necessary to displace a saturation concentration of a target ligand being measured from 50% of binding sites.
(§3) In vitro Bioassay: The various somatostatin analogs are tested in vitro for their ability to bind to isolated cloned receptors expressed on CHO-K1 cells and CCL39 cells. CHO-K1 cells are grown in Ham's F-12 medium, and CCL39 cells are grown in Dulbecco's modified Eagle's medium/Ham's F-12(1:1) mix, supplemented with 10% fetal bovine serum, 100 U/ml penicillin and 100 μg/ml streptomycin, in humidified air containing 5% CO2 at 37° C.
(§4) Cells are washed twice with and scraped into ice-cold 0.05 M Tris-HCl (pH 7.4), collected by centrifugation, and homogenized using a rotor/stator slash system in the same buffer. After centrifugation at 120 g for 5 min. at 4° C., the supernatant is collected and centrifuged again at 48,000 g for 30 min. at 4° C. The resulting pellet is resuspended in ice-cold Tris buffer, transferred into a microfuge tube, and centrifuged at 20,000 g for 15 min. at 4° C. After withdrawal of the supernatant, the membrane pellet is stored at −80° C.
(§5) Receptor autoradiography is performed on 20 μm thick cryostat sections of the membrane pellets, mounted on microscope slides, and then stored at −20° C. […] […] Unlabeled somatostatin-28 is run in parallel using the same increasing concentrations, as a control. IC50 values are calculated after quantification of the data using a computer-assisted image processing system as known in this art.

human SSTR2 = target: T2, human SSTR2 (Homo sapiens, UniProt P30874); test: Displacement of 125I-[Leu8,D-Trp22,Tyr25]-somatostatin-28 from cloned SSTR2 (receptor autoradiography on membrane pellets); settings: inhibition of 125I-[Leu8,D-Trp22,Tyr24]SRIF-28 binding, cloned receptor; read-out: IC50 (nM) mSSTR2
T2 construct: expressed in transfected cells; host or cells: CHO-K1 cells and CCL39 cells
T2 sequence (P30874 whole entry): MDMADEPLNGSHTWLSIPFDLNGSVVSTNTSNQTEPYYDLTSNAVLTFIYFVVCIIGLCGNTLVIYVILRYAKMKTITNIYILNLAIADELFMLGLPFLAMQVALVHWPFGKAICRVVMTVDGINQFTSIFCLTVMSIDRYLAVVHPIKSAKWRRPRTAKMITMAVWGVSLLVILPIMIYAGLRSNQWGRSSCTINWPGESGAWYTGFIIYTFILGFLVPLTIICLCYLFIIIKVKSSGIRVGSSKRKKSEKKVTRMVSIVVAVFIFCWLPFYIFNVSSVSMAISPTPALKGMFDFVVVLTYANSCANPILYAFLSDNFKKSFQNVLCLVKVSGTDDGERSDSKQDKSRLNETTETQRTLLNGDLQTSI
Method: as §1, §2, §3, §4, §5

human SSTR3 [1] = target: T3, human SSTR3 (Homo sapiens, UniProt P32745); test: Displacement of 125I-[Leu8,D-Trp22,Tyr25]-somatostatin-28 from cloned SSTR3 (receptor autoradiography on membrane pellets); settings: for relative potency at SSTR3 by comparison to SRIF-28: binding affinity relative to SRIF-28 (=1); for binding strength and selectivity for SSTR3, in words: qualitative statement
T3 construct: expressed in transfected cells; host or cells: CHO-K1 cells and CCL39 cells
T3 sequence (P32745 whole entry): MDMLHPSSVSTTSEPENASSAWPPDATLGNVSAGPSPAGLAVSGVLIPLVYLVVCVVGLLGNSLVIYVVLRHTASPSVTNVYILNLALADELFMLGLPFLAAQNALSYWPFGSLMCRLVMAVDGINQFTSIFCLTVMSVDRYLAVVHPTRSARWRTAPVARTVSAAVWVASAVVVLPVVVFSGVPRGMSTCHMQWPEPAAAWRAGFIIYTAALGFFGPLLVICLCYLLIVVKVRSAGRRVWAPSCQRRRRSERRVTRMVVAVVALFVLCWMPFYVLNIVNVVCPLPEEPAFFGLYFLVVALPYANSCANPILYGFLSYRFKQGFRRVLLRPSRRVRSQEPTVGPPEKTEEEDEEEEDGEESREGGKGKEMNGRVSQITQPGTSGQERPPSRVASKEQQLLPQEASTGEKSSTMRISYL
Method: as §1
as §2, with “sites. The peptide des-AA^1,2,4,5,12,13-[D-Agl^8(Me,2-naphthoyl)]SRIF inhibits the binding to SSTR3 of an iodinated SRIF-28 ligand that has strong affinity for all five receptors.” for “sites.”
as §3, §4
(§6) Receptor autoradiography is performed on 20 μm thick cryostat sections of the membrane pellets, mounted on microscope slides, and then stored at −20° C. For each of the tested compounds, complete displacement experiments are performed with the universal somatostatin ligand radioligand ^125I-[Leu^8,D-Trp^22,Tyr^25]-somatostatin-28 that binds with strong affinity to all five receptors. Increasing concentrations of the unlabeled peptide are used ranging from 0.1-1000 nM. Unlabeled somatostatin-28 is run in parallel using the same increasing concentrations, as a control. IC50 values are calculated after quantification of the data using a computer-assisted image processing system as known in this art.
(§7) The potencies of certain SRIF analogs to inhibit radioligand binding of ^125I-[Leu^8,D-Trp^22,[…]]SRIF-28 to the various cloned SRIF receptors are shown in the following table wherein the IC50 values are given in nanomolar concentration.

human SSTR4 = target: T4, human SSTR4 (Homo sapiens, UniProt P31391); test: Displacement of 125I-[Leu8,D-Trp22,Tyr25]-somatostatin-28 from cloned SSTR4 (receptor autoradiography on membrane pellets); settings: inhibition of 125I-[Leu8,D-Trp22,Tyr24]SRIF-28 binding, cloned receptor; read-out: IC50 (nM) mSSTR4
T4 construct: expressed in transfected cells; host or cells: CHO-K1 cells and CCL39 cells
T4 sequence (P31391 whole entry): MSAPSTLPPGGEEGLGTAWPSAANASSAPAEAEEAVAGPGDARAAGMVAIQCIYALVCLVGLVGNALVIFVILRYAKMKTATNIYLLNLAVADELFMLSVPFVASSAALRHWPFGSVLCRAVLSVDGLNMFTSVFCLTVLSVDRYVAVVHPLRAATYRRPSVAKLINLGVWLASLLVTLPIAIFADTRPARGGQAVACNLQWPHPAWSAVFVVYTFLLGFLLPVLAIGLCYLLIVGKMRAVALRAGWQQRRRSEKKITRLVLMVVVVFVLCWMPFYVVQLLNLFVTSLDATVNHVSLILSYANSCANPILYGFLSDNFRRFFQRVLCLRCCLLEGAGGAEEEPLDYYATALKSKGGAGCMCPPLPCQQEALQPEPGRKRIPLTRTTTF
Method: as §1, §2, §3, §4, §5

human SSTR5 [2] = target: T5, human SSTR5 (Homo sapiens, UniProt P35346); test: Displacement of 125I-[Leu8,D-Trp22,Tyr25]-somatostatin-28 from cloned SSTR5 (receptor autoradiography on membrane pellets); settings: inhibition of 125I-[Leu8,D-Trp22,Tyr24]SRIF-28 binding, cloned receptor; read-out: IC50 (nM) mSSTR5
T5 construct: expressed in transfected cells; host or cells: CHO-K1 cells and CCL39 cells
T5 sequence (P35346 whole entry): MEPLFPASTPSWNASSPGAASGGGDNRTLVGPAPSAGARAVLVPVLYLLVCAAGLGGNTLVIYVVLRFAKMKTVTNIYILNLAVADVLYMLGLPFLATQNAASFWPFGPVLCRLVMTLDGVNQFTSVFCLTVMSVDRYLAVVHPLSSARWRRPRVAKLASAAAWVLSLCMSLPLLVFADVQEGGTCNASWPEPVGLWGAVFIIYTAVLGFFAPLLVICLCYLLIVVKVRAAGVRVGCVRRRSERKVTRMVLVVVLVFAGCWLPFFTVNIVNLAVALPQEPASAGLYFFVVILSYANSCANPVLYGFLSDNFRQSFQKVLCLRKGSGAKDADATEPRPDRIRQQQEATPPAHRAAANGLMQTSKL
Method: as §1
as §2, with “sites. The peptide des-AA^1,2,4,5,12,13-[D-Agl^8(Me,2-naphthoyl)]SRIF inhibits the binding to SSTR3 of an iodinated SRIF-28 ligand that has strong affinity for all five receptors.” for “sites.”
as §3, §4
as §6, with “Increasing concentrations of the unlabeled peptide are used ranging from 0.1-1000 nM.” left out
as §7

human SSTR3 [3] = target: T3, human SSTR3; test: Displacement of 125I-[Leu8,D-Trp22,Tyr25]-somatostatin-28 from cloned SSTR3 (receptor autoradiography on membrane pellets); settings: 125I-labelled Tyr2 analog tested as radioligand on cloned receptor
human SSTR5 [4] = target: T5, human SSTR5; test: Displacement of 125I-[Leu8,D-Trp22,Tyr25]-somatostatin-28 from cloned SSTR5 (receptor autoradiography on membrane pellets); settings: 125I-labelled Tyr2 analog tested as radioligand on cloned receptor
[5] = inhibition of 125I-[Leu8,D-Trp22,Tyr24]SRIF-28 binding, cloned receptor, read-out: IC50 (nM) mSSTR3

IC50 (human SSTR1) [nM] | IC50 (human SSTR2) [nM] | relative potency at SSTR3 by comparison to SRIF-28 (human SSTR3 [1]) | IC50 (human SSTR3 [1]; [5]) [nM] | IC50 (human SSTR4) [nM] | IC50 (human SSTR5 [2]) [nM] | binding of the radioiodinated analog to SSTR5 (human SSTR5 [4]) | IC50 (human SSTR3 [1]; iodinated SRIF-28 ligand, cloned human receptor, read-out: IC50 at cloned human SSTR3) [nM] | binding strength and selectivity for SSTR3, in words (human SSTR3 [1]) | binding strength and selectivity for SSTR3, in words (human SSTR3 [1]; listed as Peptide 2A) | Compound | binding strength and selectivity for SSTR3, in words (human SSTR3 [1]; listed as Peptide 2F) | binding of the radioiodinated analog to SSTR3 (human SSTR3 [3])
> 10000 | > 10000 | about 1.4 | 6.7 ± 2.6 | > 10000 | > 10000 | – | – | – | – | C[C@@H](O)[C@@H]1NC(=O)[C@H](CCCCN)NC(=O)[C@@H](N(C)C(=O)c2ccc3ccccc3c2)NC(=O)[C@H](Cc2ccc(O)cc2)NC(=O)[C@H](Cc2ccccc2)NC(=O)[C@H](NC(N)=O)CSSC[C@@H](C(=O)O)NC(=O)[C@H](Cc2ccccc2)NC1=O [Peptide No. 2F, (cyclo 3-14)Cbm-D-Cys-Phe-Tyr-D-Agl(Me,2Np)-Lys-Thr-Phe-Cys-OH] | bind strongly and selectively to SSTR3; also recorded: binding strength essentially equal to that of SRIF-28 | –
– | – | – | – | – | – | No specific binding | – | – | – | (cyclo)H-Tyr-Cys-Phe-Phe-D-Agl(Me,2Np)-Lys-Thr-Phe-Cys-OH [Peptide No. 4] | – | continues to bind strongly to SSTR3; also recorded: effectively binds to SSTR3 to about the same extent as Peptide No. 2B
> 10000 | > 10000 | about 0.24 | 39 ± 11 | > 10000 | > 10000 | – | ~39 | selectively binds to SSTR3 | bind strongly and selectively to SSTR3 | C[C@@H](O)[C@@H]1NC(=O)[C@H](CCCCN)NC(=O)[C@@H](N(C)C(=O)c2ccc3ccccc3c2)NC(=O)[C@H](Cc2ccc(O)cc2)NC(=O)[C@H](Cc2ccccc2)NC(=O)[C@H](N)CSSC[C@@H](C(=O)O)NC(=O)[C@H](Cc2ccccc2)NC1=O [Peptide No. 2A, (cyclo 3-14)H-D-Cys-Phe-Tyr-D-Agl(Me,2Np)-Lys-Thr-Phe-Cys-OH] | – | –

Reference: US6579967B1, “Receptor-selective somatostatin analogs” (The Salk Institute for Biological Studies, priority 1999, dated 2003)
